What was measured:
[1] = tested on: ISC-enriched organoids; assay: Primary screen, 384-well 2.5-D organoid differentiation (ENR+CD, 6 days): carbachol-induced lysozyme secretion (LYZ.S); assay type: cell-based, murine; conditions: for Dose.FC.LYZ.S / Z.LYZ.S / SSMD.LYZ.S: primary screen; for Dose.FC.LYZ.S: FC vs plate median; for Dose.FC.LYZ.S (log 2 fold change, carbachol-induced lysozyme secretion): vs plate median; for Z.LYZ.S: standard z score; for SSMD.LYZ.S: strictly standardized mean difference
Text: (§1) High-throughput screening.

[2] = tested on: ISC-enriched organoids; assay: Primary screen, 384-well 2.5-D organoid differentiation (ENR+CD, 6 days): basal lysozyme secretion (LYZ.NS); assay type: cell-based, murine; conditions: for Dose.FC.LYZ.NS: FC vs plate median; for Z.LYZ.NS: standard z score of FC; for Dose.FC.LYZ.NS (log 2 fold change, basal lysozyme secretion): vs plate median; for SSMD.LYZ.NS: strictly standardized mean difference
Text: as §1

[3] = tested on: ISC-enriched organoids; assay: Primary screen, 384-well 2.5-D organoid differentiation (ENR+CD, 6 days, Target Selective Inhibitor Library, vs whole-plate median): ATP (CellTiter-Glo 3D, CTG); conditions: for Dose.FC.CTG: FC vs plate median; for Z.CTG: standard z score of FC; for Dose.FC.CTG (log 2 fold change, ATP): vs plate median; for SSMD.CTG: strictly standardized mean difference
[4] = primary screen, dose 0.08 uM, ENR+CD 6 days
[5] = primary screen, dose 0.40 uM, ENR+CD 6 days
[6] = primary screen, dose 2.00 uM, ENR+CD 6 days
[7] = primary screen, dose 10.00 uM, ENR+CD 6 days
[8] = 1st of the 4 dose lines of the treatment (dose not given)
[9] = 2nd of the 4 dose lines of the treatment (dose not given)
[10] = 3rd of the 4 dose lines of the treatment (dose not given)
[11] = 4th of the 4 dose lines of the treatment (dose not given)
[12] = primary screen, 1st of the 4 dose lines of the treatment (dose not given)
[13] = primary screen, 2nd of the 4 dose lines of the treatment (dose not given)
[14] = primary screen, 3rd of the 4 dose lines of the treatment (dose not given)
[15] = primary screen, 4th of the 4 dose lines of the treatment (dose not given)

Compound: O=C1C(=O)N(Cc2ccc(Cl)c(Cl)c2)c2ccccc21 [Apoptosis Activator 2]
- Dose.FC.LYZ.S ([1]; dose 0.08 uM, ENR+CD 6 days): 0.132 log 2 fold change
- Dose.FC.LYZ.S ([1]; dose 0.40 uM, ENR+CD 6 days): 0.073 log 2 fold change
- Dose.FC.LYZ.S ([1]; dose 2.00 uM, ENR+CD 6 days): −0.009 log 2 fold change
- Dose.FC.LYZ.S ([1]; dose 10.00 uM, ENR+CD 6 days): −0.252 log 2 fold change
- Dose.FC.LYZ.NS [2, 4]: 0.149 log 2 fold change
- Z.LYZ.NS ([2]; primary screen, dose 0.08 uM): 1.302
- Dose.FC.LYZ.NS [2, 5]: 0.033 log 2 fold change
- Z.LYZ.NS ([2]; primary screen, dose 0.40 uM): 0.290
- Dose.FC.LYZ.NS [2, 6]: −0.006 log 2 fold change
- Z.LYZ.NS ([2]; primary screen, dose 2.00 uM): −0.049
- Dose.FC.LYZ.NS [2, 7]: −0.199 log 2 fold change
- Z.LYZ.NS ([2]; primary screen, dose 10.00 uM): −1.734
- Dose.FC.CTG [3, 4]: 0.304 log 2 fold change
- Z.CTG ([3]; primary screen, dose 0.08 uM): 0.725
- Dose.FC.CTG [3, 5]: 0.262 log 2 fold change
- Z.CTG ([3]; primary screen, dose 0.40 uM): 0.626
- Dose.FC.CTG [3, 6]: 0.082 log 2 fold change
- Z.CTG ([3]; primary screen, dose 2.00 uM): 0.195
- Dose.FC.CTG [3, 7]: −0.158 log 2 fold change
- Z.CTG ([3]; primary screen, dose 10.00 uM): −0.378

Compound: C[C@H](Cn1cnc2c(N)ncnc21)OCP(=O)(O)O [Tenofovir]
- Dose.FC.LYZ.S (log 2 fold change, carbachol-induced lysozyme secretion) ([1]; dose 0.08 uM): 0.045
- Dose.FC.LYZ.S (log 2 fold change, carbachol-induced lysozyme secretion) ([1]; dose 0.40 uM): −0.080
- Dose.FC.LYZ.S (log 2 fold change, carbachol-induced lysozyme secretion) ([1]; dose 2.00 uM): −0.171
- Dose.FC.LYZ.S (log 2 fold change, carbachol-induced lysozyme secretion) ([1]; dose 10.00 uM): −0.271
- Z.LYZ.NS (standard z score) ([2]; dose 0.08 uM): 0.673
- Dose.FC.LYZ.NS (log 2 fold change, basal lysozyme secretion) ([2]; dose 0.08 uM): 0.077
- Z.LYZ.NS (standard z score) ([2]; dose 0.40 uM): −0.662
- Dose.FC.LYZ.NS (log 2 fold change, basal lysozyme secretion) ([2]; dose 0.40 uM): −0.076
- Z.LYZ.NS (standard z score) ([2]; dose 2.00 uM): −1.153
- Dose.FC.LYZ.NS (log 2 fold change, basal lysozyme secretion) ([2]; dose 2.00 uM): −0.132
- Z.LYZ.NS (standard z score) ([2]; dose 10.00 uM): −1.899
- Dose.FC.LYZ.NS (log 2 fold change, basal lysozyme secretion) ([2]; dose 10.00 uM): −0.218
- Z.CTG (standard z score) ([3]; dose 0.08 uM): 0.045
- Dose.FC.CTG (log 2 fold change, ATP) ([3]; dose 0.08 uM): 0.019
- Z.CTG (standard z score) ([3]; dose 0.40 uM): −0.200
- Dose.FC.CTG (log 2 fold change, ATP) ([3]; dose 0.40 uM): −0.084
- Z.CTG (standard z score) ([3]; dose 2.00 uM): −0.308
- Dose.FC.CTG (log 2 fold change, ATP) ([3]; dose 2.00 uM): −0.129
- Z.CTG (standard z score) ([3]; dose 10.00 uM): −0.804
- Dose.FC.CTG (log 2 fold change, ATP) ([3]; dose 10.00 uM): −0.337

Compound: O=[N+]([O-])C=Cc1ccc2c(c1)OCO2
- Dose.FC.LYZ.S ([1]; Dose 0.08 uM): 0.076 log 2 fold change
- Dose.FC.LYZ.S ([1]; Dose 0.40 uM): 0.100 log 2 fold change
- Dose.FC.LYZ.S ([1]; Dose 2.00 uM): 0.019 log 2 fold change
- Dose.FC.LYZ.S ([1]; Dose 10.00 uM): −0.179 log 2 fold change
- Z.LYZ.S [1, 8]: 0.493
- Z.LYZ.S [1, 9]: 0.648
- Z.LYZ.S [1, 10]: 0.124
- Z.LYZ.S [1, 11]: −1.157
- SSMD.LYZ.S [1, 8]: 0.451
- SSMD.LYZ.S [1, 9]: 0.331
- SSMD.LYZ.S [1, 10]: 0.073
- SSMD.LYZ.S [1, 11]: −0.676
- Dose.FC.LYZ.NS ([2]; Dose 0.08 uM, primary screen): 0.057 log 2 fold change
- Z.LYZ.NS ([2]; Dose 0.08 uM): 0.499
- Dose.FC.LYZ.NS ([2]; Dose 0.40 uM, primary screen): −0.010 log 2 fold change
- Z.LYZ.NS ([2]; Dose 0.40 uM): −0.088
- Dose.FC.LYZ.NS ([2]; Dose 2.00 uM, primary screen): 0.040 log 2 fold change
- Z.LYZ.NS ([2]; Dose 2.00 uM): 0.347
- Dose.FC.LYZ.NS ([2]; Dose 10.00 uM, primary screen): −0.150 log 2 fold change
- Z.LYZ.NS ([2]; Dose 10.00 uM): −1.307
- SSMD.LYZ.NS [2, 12]: 0.518
- SSMD.LYZ.NS [2, 13]: −0.082
- SSMD.LYZ.NS [2, 14]: 0.270
- SSMD.LYZ.NS [2, 15]: −0.670
- Dose.FC.CTG ([3]; Dose 0.08 uM, primary screen): −0.016 log 2 fold change
- Z.CTG ([3]; Dose 0.08 uM): −0.037
- Dose.FC.CTG ([3]; Dose 0.40 uM, primary screen): 0.061 log 2 fold change
- Z.CTG ([3]; Dose 0.40 uM): 0.146
- Dose.FC.CTG ([3]; Dose 2.00 uM, primary screen): 0.062 log 2 fold change
- Z.CTG ([3]; Dose 2.00 uM): 0.148
- Dose.FC.CTG ([3]; Dose 10.00 uM, primary screen): −0.197 log 2 fold change
- Z.CTG ([3]; Dose 10.00 uM): −0.469
- SSMD.CTG [3, 12]: −0.026
- SSMD.CTG [3, 13]: 0.148
- SSMD.CTG [3, 14]: 0.166
- SSMD.CTG [3, 15]: −0.338
